These are literature values, as cited in US20080021079A1, “Compounds, Compositions, and Methods” (priority 2003, published 2008).

For this data set, the system named is A549 cells.

In the case of `O=c1[nH]cc(F)c(=O)[nH]1` [5-fluorouracil], the concentration for 50% growth inhibition (GI50) (commonly the concentration that inhibits growth by half) was 1000 nM.
In the case of `COc1cccc2c1C(=O)c1c(O)c3c(c(O)c1C2=O)C[C@@](O)(C(=O)CO)C[C@@H]3O[C@H]1C[C@H](N)[C@H](O)[C@H](C)O1` [doxorubicin], the GI50 is 63 nM.
Take `CC(=O)O[C@H]1C(=O)[C@@]2(C)[C@H]([C@H](OC(=O)c3ccccc3)[C@]3(O)C[C@H](OC(=O)[C@H](O)[C@@H](NC(=O)c4ccccc4)c4ccccc4)C(C)=C1C3(C)C)[C@]1(OC(C)=O)CO[C@@H]1C[C@@H]2O` [paclitaxel]: the GI50 was 4 nM.
Consider `NC(=O)NO` [hydroxyurea], for which the GI50 was 500000 nM.
